Measured values taken from patent US12410179B2, “Modulators of TNF alpha activity and uses thereof” (RayThera, Inc., priority 2023, dated 2025).
pIC50: −log10 of the molar value.

Each compound was assayed against TNFα (Homo sapiens, UniProt P01375) (assay: HEK-Blue hTNFα reporter assay). Details: HEK-Blue hTNFα reporter cells, SEAP readout; read-out: IC50 Range.
Sequence of TNFα (P01375 77-233 limits assumed): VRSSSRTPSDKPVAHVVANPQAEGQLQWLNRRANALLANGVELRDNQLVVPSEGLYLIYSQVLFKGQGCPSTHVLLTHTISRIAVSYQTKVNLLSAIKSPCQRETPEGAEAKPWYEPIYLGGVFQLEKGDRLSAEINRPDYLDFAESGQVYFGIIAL
Assay type: cell-based
Set-up: purchased R&D biosystem (R&D Systems) 210-TA-020/CF
Source text: Stimulation of HEK293 cells by TNFα leads to activation of the NF-κB pathway. The potency of compounds was examined in HEK-Blue™ hTNFα reporter cells (Invivogen, Cat #hkb-tnfdmyd). HEK-Blue™ TNFα cells were generated by stable transfection of HEK293 cell line with a SEAP reporter gene under the control of the […] minimal promoter fused to NF-κB binding sites. Stimulation of HEK-Blue™ TNFα cells with TNFα triggers the activation of the NF-κB-inducible promoter and the production of SEAP. Levels of SEAP in the supernatant can be easily determined using QUANTI-Blue™ Solution (Invivogen, cat #rep-qbs) by reading the OD at 620-655 nm.
HEK-Blue™ TNFα cells were cultured in DMEM supplemented with 10% FBS, 100p/mL penicillin, 100 μg/mL streptomycin, 100 μg/mL normocin, 1 μg/mL puromycin, and 100 μg/mL zeocin. The culture was maintained in culture incubator with 5% CO2 at 37° C. When used for assay, the cells were gently rinsed twice with pre-warmed phosphate buffered saline (PBS) and detached in presence of PBS by tapping the flask or by using a cell scraper. The cells were spun to remove PBS and resuspended in fresh, pre-warmed test medium (DMEM supplemented with 10% FBS, 100p/mL penicillin, and 100 μg/mL streptomycin). A serial dilution of work solution of tested compound was made in DMSO with 1000× of final concentration, and 40 nL of compound DMSO solution was transferred into 384-well plates (Corning 3764) by Echo, and incubated with 10 μL of recombinant hTNFα (R&D biosystem, Cat #210-TA-020/CF) for 1 h at 37° C. The compound/hTNFα mixture well received 30 μL HEK-Blue™ TNFα cell suspension at 10000 cells/well, and then incubated at 37° C. with 5% CO2 for 24 h. The final concentration of hTNFα is […]. After incubation, 5 μL of induced cell supernatant was transferred to a new 384-well plate well (Coring 3764) to mix with 45 μL of QUANTI-Blue Solution. After 1 h incubation at 37° C., the plate was read using a spectrophotometer at 620 nm.
The percentage of inhibition was calculated by the following formula: % inhibition=(positive control−Sample)/(positive control−negative control)*100 • Positive control: OD620 reading of cells with hTNFα stimulation. • Negative control: OD620 reading of cells without hTNFα stimulation. • Sample: OD620 reading of cells with compound at specific concentration and hTNFα stimulation
The % inhibition was plotted against compound concentration in logarithmic scale and the IC50 was rendered using 4-parameter nonlinear regression (GraphPad Prism).
`CN1C(=O)c2cccc(OC(F)F)c2[C@H]2C[C@@H]1c1nn3ccc(-c4cnc(C5(N)CCC5)nc4)nc3c12` [Example 3, (7R,14S)-12-(2-(1-aminocyclobutyl)pyrimidin-5-yl)-1-(difluoromethoxy)-6-methyl-6,7-dihydro-7,14-methanobenzo[c]pyrimido[1′,2′:1,5]pyrazolo[4,3-f]azocin-5 (14H)-one] was tested, and the pIC50 was > 7.60. With `CN1C(=O)c2cccc(OC(F)F)c2[C@H]2C[C@@H]1c1nn3ccc(C4=CCC(C(C)(C)O)CC4)nc3c12` (stereo partly drawn) [Example 8, (7R,14S)-1-(difluoromethoxy)-12-(4-(2-hydroxypropan-2-yl)cyclohex-1-en-1-yl)-6-methyl-6,7-dihydro-7,14-methanobenzo[c]pyrimido[1′,2′:1,5]pyrazolo[4,3-f]azocin-5 (14H)-one] the pIC50 was 7.00 to 7.60. `[2H]C([2H])([2H])N1C(=O)c2cccc(OC(F)F)c2[C@H]2C[C@@H]1c1nn3ccc(-c4cnc([C@]5(O)C[C@@](C)(O)C5)nc4)cc3c12` [Example 33] was tested, and the pIC50 was > 7.60. For `[2H]C([2H])([2H])N1C(=O)c2cccc(OC(F)F)c2[C@H]2C[C@@H]1c1nn3ccc(-c4cnc([C@]5(N)C[C@@](C)(O)C5)nc4C)nc3c12` [Example 285], the pIC50 was > 7.60. For `[2H]C([2H])([2H])N1C(=O)c2cccc(OC(F)F)c2[C@H]2C[C@@H]1c1nn3ccc(-c4cnc([C@@](C)(N)CC#N)nc4)cc3c12` [Example 265], the pIC50 was > 7.60. In the case of `CN1C(=O)c2cccc(OC(F)F)c2[C@H]2C[C@@H]1c1nn3ccc(-c4ncc([C@H](O)[C@H]5CCO5)cn4)cc3c12` [Example 132], the pIC50 was > 7.60. For `C[C@]1(O)C[C@](N)(c2ccc(-c3ccn4nc5c(c4n3)[C@@H]3C[C@H]5NC(=O)c4cccc(OC(F)F)c43)cn2)C1` [Example 220], the pIC50 was 7.00 to 7.60. With `[2H]C([2H])([2H])N1C(=O)c2cccc(OC(F)F)c2[C@H]2C[C@@H]1c1nn3cc(F)c(-c4cnc([C@]5(N)C[C@H](C#N)C5)nc4)cc3c12` [Example 290] the pIC50 was > 7.60. In the case of `[2H]C([2H])([2H])N1C(=O)c2cccc(OC(F)F)c2[C@H]2C[C@@H]1c1nn3cc(F)c(-c4cnc([C@]5(N)C[C@@](C)(C#N)C5)nc4)nc3c12` [Example 213], the pIC50 was > 7.60. For `CN1C(=O)c2cccc(OC(F)F)c2[C@H]2C[C@@H]1c1nn3ccc(-c4cnc(C5(O)CC(F)(F)C5)nc4)cc3c12` [Example 66], the pIC50 was > 7.60. In the case of `CN1C(=O)c2cccc(OC(F)F)c2[C@H]2C[C@@H]1c1nn3ccc([C@H]4CC[C@@H](OC[C@H](O)CO)CC4)cc3c12` [Example 317, (7R,14S)-1-(difluoromethoxy)-12-((1S,4R)-4-((R)-2,3-dihydroxypropoxy)cyclohexyl)-6-methyl-6,7-dihydro-7,14-methanobenzo[c]pyrido[1′,2′:1,5]pyrazolo[4,3-f]azocin-5 (14H)-one], the pIC50 was > 7.60. For `CN1C(=O)c2cccc(OC(F)F)c2[C@H]2C[C@@H]1c1nn3cc(F)c(-c4ncc(C5(O)COC5)cn4)cc3c12` [Example 166], the pIC50 was > 7.60. In the case of `[2H]C([2H])([2H])N1C(=O)c2cccc(OC(F)F)c2[C@H]2C[C@@H]1c1nn3ccc(-c4cnc([C@]5(N)C[C@@H](C#N)C5)nc4)cc3c12` [Example 170], the pIC50 was > 7.60. `[2H]C([2H])([2H])N1C(=O)c2cccc(OC(F)F)c2[C@H]2C[C@@H]1c1nn3ccc(-c4cnc([C@]5(N)C[C@@](C)(O)C5)cn4)cc3c12` [Example 209] was tested, and the pIC50 was > 7.60. For `C[C@]1(O)C[C@](N)(c2ccc(-c3ccn4nc5c(c4c3)[C@@H]3C[C@H]5NC(=O)c4cccc(OC(F)F)c43)cn2)C1` [Example 224], the pIC50 was > 7.60. For `CN1C(=O)c2cccc(OC(F)F)c2[C@H]2C[C@@H]1c1nn3ccc(-c4cnc([C@]5(N)C[C@H](O)C5)c(F)c4)cc3c12` [Example 169], the pIC50 was > 7.60. For `O=C1N[C@@H]2C[C@H](c3c(OC(F)F)cccc31)c1c2nn2ccc(-c3cnc(N4CCOCC4)nc3)cc12` [Example 162], the pIC50 was > 7.60. `CC(=O)N1CCN(c2ncc(-c3ccn4nc5c(c4c3)[C@@H]3C[C@H]5N(C)C(=O)c4cccc(OC(F)F)c43)cn2)CC1` [Example 148] was tested, and the pIC50 was > 7.60. For `CN1C(=O)c2cccc(OC(F)F)c2[C@H]2C[C@@H]1c1nn3ccc(-c4cnc([C@@](C)(O)CO)nc4)cc3c12` [Example 84], the pIC50 was > 7.60. `O=C1N[C@@H]2C[C@H](c3c(OC(F)F)cccc31)c1c2nn2ccc(-c3ccnc(OC4COC4)c3)cc12` [Example 202] was tested, and the pIC50 was > 7.60. For `[2H]C([2H])([2H])N1C(=O)c2cccc(C#N)c2[C@H]2C[C@@H]1c1nn3ccc(-c4cnc([C@]5(N)C[C@@](C)(C#N)C5)nc4)cc3c12` [Example 308], the pIC50 was > 7.60. In the case of `CN1C(=O)c2cccc(OC(F)F)c2[C@H]2C[C@@H]1c1nn3cc(F)c(-c4cnc(P(C)(C)=O)cn4)cc3c12` [Example 128], the pIC50 was > 7.60. With `CN1C(=O)c2cccc(OC(F)F)c2[C@H]2C[C@@H]1c1nn3ccc(-c4cnc(P(C)(C)=O)cn4)cc3c12` [Example 87] the pIC50 was > 7.60. With `Cc1cc(P(C)(C)=O)c(F)cc1-c1ccn2nc3c(c2c1)[C@@H]1C[C@H]3NC(=O)c2cccc(OC(F)F)c21` [Example 198] the pIC50 was > 7.60. In the case of `CN1C(=O)c2cccc(OC(F)F)c2[C@H]2C[C@@H]1c1nn3ccc(-c4cnc([C@](C)(O)C5COC5)nc4)cc3c12` [Example 86], the pIC50 was > 7.60. In the case of `CN1C(=O)c2cccc(OC(F)F)c2[C@H]2C[C@@H]1c1nn3cnc(-c4cnc(C5(N)CCC5)nc4)cc3c12` [Example 48], the pIC50 was > 7.60. With `[2H]C([2H])([2H])N1C(=O)c2cccc(OC(F)F)c2[C@H]2C[C@@H]1c1nn3cc(F)c(-c4cnc([C@]5(N)C[C@@](C)(O)C5)c(F)c4)nc3c12` [Example 188] the pIC50 was > 7.60. For `[2H]C([2H])([2H])N1C(=O)c2cccc(OC(F)F)c2[C@H]2C[C@@H]1c1nn3ccc(-c4cnc([C@]5(N)C[C@@](C)(O)C5)nc4)nc3c12` [Example 218], the pIC50 was > 7.60. For `CN1C(=O)c2cccc(OC(F)F)c2[C@H]2C[C@@H]1c1nn3cnc(-c4cnc([C@]5(N)C[C@@](C)(O)C5)nc4)cc3c12` [Example 46], the pIC50 was > 7.60. `CN1C(=O)c2cccc(OC(F)F)c2[C@H]2C[C@@H]1c1nn3cnc(-c4ccc(P(C)(C)=O)c(F)c4)cc3c12` [Example 144] was tested, and the pIC50 was > 7.60. For `CN1C(=O)c2cccc(OC(F)F)c2[C@H]2C[C@@H]1c1nn3ccc(-c4cnc(C(O)(CF)CF)nc4)cc3c12` [Example 95], the pIC50 was > 7.60. For `[2H]C([2H])([2H])N1C(=O)c2cccc(OC(F)F)c2[C@H]2C[C@@H]1c1nn3cc(F)c(-c4cnc([C@]5(N)C[C@@H](O)C5)c(F)c4)nc3c12` [Example 225], the pIC50 was > 7.60. `[2H]C([2H])([2H])N1C(=O)c2cccc(OC(F)F)c2[C@H]2C[C@@H]1c1nn3cc(F)c(-c4cnc(C(C)(C)N)nc4)nc3c12` [Example 287] was tested, and the pIC50 was > 7.60. With `CN1C(=O)c2cccc(OC(F)F)c2[C@H]2C[C@@H]1c1nn3cc(F)c(-c4cnc([C@]5(N)C[C@@](C)(C#N)C5)nc4)nc3c12` [Example 51] the pIC50 was > 7.60. `CN1C(=O)c2cccc(OC(F)F)c2[C@H]2C[C@@H]1c1nn3ccc(-c4cnc([C@](C)(O)C5CC5)nc4)cc3c12` [Example 81] was tested, and the pIC50 was > 7.60. In the case of `CN1C(=O)c2cccc(OC(F)F)c2[C@H]2C[C@@H]1c1nn3ccc(C4=CCC(C(C)(C)O)OC4)cc3c12` (stereo in doubt) [Example 318, (7R,14S)-1-(difluoromethoxy)-12-((R)-6-(2-hydroxypropan-2-yl)-5,6-dihydro-2H-pyran-3-yl)-6-methyl-6,7-dihydro-7,14-methanobenzo[c]pyrido[1′,2′:1,5]pyrazolo[4,3-f]azocin-5 (14H)-one], the pIC50 was > 7.60. `CN1C(=O)c2cccc(OC(F)F)c2[C@H]2C[C@@H]1c1nn3ccc(-c4cnc([C@]5(N)C[C@@](C)(O)C5)c(F)c4)cc3c12` [Example 40] was tested, and the pIC50 was > 7.60.

Same assay, conditions: HEK-Blue hTNFα reporter cells; read-out: TNFα reporter, Emax
Work on `CN1C(=O)c2cccc(OC(F)F)c2[C@H]2C[C@@H]1c1nc3ccc(-c4cnc([C@]5(N)C[C@@](C)(C#N)C5)c(F)c4)cc3n12` [Comp. Ex #8, reference compound] yielded an Emax of 80%. For `CN1C(=O)c2cccc(OC(F)F)c2[C@H]2C[C@@H]1c1nc3ccc(-c4cnc([C@]5(N)C[C@@](C)(CO)C5)nc4)cc3n12` [Comp. Ex #7, reference compound], the Emax was 92%.

Same assay, conditions: HEK-Blue hTNFα reporter cells; read-out: TNFα reporter, IC50
With `CN1C(=O)c2cccc(OC(F)F)c2[C@H]2C[C@@H]1c1nc3ccc(-c4cnc([C@]5(N)C[C@@](C)(C#N)C5)c(F)c4)cc3n12` [Comp. Ex #8, reference compound] the pIC50 was 8.28. Work on `CN1C(=O)c2cccc(OC(F)F)c2[C@H]2C[C@@H]1c1nc3ccc(-c4cnc([C@]5(N)C[C@@](C)(CO)C5)nc4)cc3n12` [Comp. Ex #7, reference compound] yielded a pIC50 of 8.38.
